Laboratory results: PMC10682503, “Structural and functional basis of inositol hexaphosphate stimulation of NHEJ through stabilization of Ku-XLF interaction” (Nucleic Acids Research, 2023)

Experiments:
[1] = tested on: c-NHEJ; conditions: cited from earlier work
[2] = tested on: S. cerevisae Ku; design: method as in PMID 11953323; conditions: cited from earlier work
[3] = biological target: T1, KuFL (full-length human Ku70–Ku80 heterodimer) (Homo sapiens, UniProt P12956+P13010); assay: Isothermal titration calorimetry (ITC), KuFL with IP6 and IP6 analogues; assay type: binding; conditions: 25 °C, Ku 4 µM in cell, IPs 40 µM in syringe
T1 construct: The full-length human Ku heterodimer subunits (Ku70 1–609, Ku80 1–732); 10x His-tag with TEV site (N); made in house; host or cells: Sf21 insect cells (baculovirus, MultiBac)
T1 sequence (P12956 whole entry): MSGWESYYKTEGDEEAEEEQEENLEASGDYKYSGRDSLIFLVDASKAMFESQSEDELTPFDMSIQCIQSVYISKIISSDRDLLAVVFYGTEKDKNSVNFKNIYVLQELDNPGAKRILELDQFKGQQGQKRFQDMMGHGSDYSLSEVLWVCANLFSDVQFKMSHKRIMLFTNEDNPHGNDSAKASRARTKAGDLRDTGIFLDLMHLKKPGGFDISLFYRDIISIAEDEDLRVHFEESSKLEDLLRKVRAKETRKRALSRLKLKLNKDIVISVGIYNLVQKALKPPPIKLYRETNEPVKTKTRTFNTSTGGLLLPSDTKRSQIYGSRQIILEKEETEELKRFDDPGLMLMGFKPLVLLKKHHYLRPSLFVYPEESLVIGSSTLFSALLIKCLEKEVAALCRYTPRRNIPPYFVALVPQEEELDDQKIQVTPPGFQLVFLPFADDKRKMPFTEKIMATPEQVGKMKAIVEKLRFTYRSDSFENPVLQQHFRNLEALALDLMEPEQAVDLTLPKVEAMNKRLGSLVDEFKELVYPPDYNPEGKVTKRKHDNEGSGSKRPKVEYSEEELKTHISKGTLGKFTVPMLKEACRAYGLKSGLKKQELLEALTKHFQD
T1 sequence (P13010 whole entry): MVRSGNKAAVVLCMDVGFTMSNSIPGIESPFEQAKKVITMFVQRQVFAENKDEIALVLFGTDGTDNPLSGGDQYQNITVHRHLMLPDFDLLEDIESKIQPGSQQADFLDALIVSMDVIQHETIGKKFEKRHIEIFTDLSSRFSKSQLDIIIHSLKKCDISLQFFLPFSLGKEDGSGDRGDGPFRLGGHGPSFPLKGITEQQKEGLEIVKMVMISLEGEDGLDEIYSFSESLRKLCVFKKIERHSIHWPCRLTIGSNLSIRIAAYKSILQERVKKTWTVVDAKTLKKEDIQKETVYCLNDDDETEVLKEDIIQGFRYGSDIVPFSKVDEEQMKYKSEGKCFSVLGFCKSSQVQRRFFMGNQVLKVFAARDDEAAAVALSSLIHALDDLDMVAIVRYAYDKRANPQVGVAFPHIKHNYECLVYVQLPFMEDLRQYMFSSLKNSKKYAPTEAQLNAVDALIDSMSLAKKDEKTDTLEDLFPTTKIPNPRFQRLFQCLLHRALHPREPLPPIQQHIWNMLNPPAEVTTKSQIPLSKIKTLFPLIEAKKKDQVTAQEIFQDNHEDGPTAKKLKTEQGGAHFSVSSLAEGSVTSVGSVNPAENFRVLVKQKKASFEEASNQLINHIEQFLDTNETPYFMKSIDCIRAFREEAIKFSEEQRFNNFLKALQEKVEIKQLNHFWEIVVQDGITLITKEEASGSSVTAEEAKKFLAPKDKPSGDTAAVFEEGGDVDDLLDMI
Description: (§1) Purification of Ku full-length (KuFL) for cryo-EM experiments was carried out as described previously ([5]). Expression and purification of KuFL for biophysical experiments was carried out as described previously ([20]). The full-length human Ku heterodimer subunits (Ku70 1–609, Ku80 1–732) were cloned into a Multibac vector ([21]). The construct has a 10× His-tag and a TEV site on the N-terminus of Ku80 and no-tag on Ku70. Protein production was initiated in Sf21 cells by infection with the baculovirus stock at MOI of 5 × 10^−3 and cells were collected 5–6 days after the infection (3–4 days after the proliferation arrest). Cells were sonicated and the supernatant was incubated with Benzonase (300 units for 30 min at 4°C). The Ku heterodimer was purified on a NiNTA-Agarose affinity column (Protino, Macherey Nagel) with a 1 M NaCl wash step to remove DNA excess. The eluted Ku was then bound onto an anion exchange column (Resource Q, Cytiva) equilibrated in 20 mM Tris pH 8.0, 50 mM NaCl, 50 mM KCl, 10 mM β-mercaptoethanol and eluted with a salt gradient. The final yield was about 20 mg of purified heterodimer per litre of culture. KuΔC constructs, heterodimer deleted of its C-terminal region (Ku70 1–544, Ku80 1–551) for X-ray crystallography, Ku mutants, Ku-2E (Ku with mutation in K357E on Ku70 and K481E on Ku80) and Ku-4E (Ku with mutations in H359E and H360E on Ku70 and K413E and H414E on Ku80) were cloned in the same vector and produced following the same protocol as KuFL expressed in Sf21 insect cells.
Calorimetry. Interactions between KuFL and inositol phosphates (IPs) (IP6 and IP6 analogues) were determined by Isothermal Titration Calorimetry (ITC) using a VP-ITC calorimeter (Malvern). Prior to measurements, all solutions were degassed under vacuum. The reaction cell of the ITC (volume 1.8 mL) was loaded with Ku heterodimers at 4 µM concentration. […] The free energy of binding (ΔG) and the entropy (ΔS) were determined using the classical thermodynamic formula, ΔG = - RT ln(Ka) and ΔG = ΔH - TΔS. […]

[4] = biological target: T2, Ku-2E (Ku70-K357E, Ku80-K481E) (Homo sapiens, UniProt P12956+P13010, K357E/K481E); assay: nanoDSF thermal stability of Ku-2E; conditions: Ku-2E with DNA
T2 construct: 10x His-tag with TEV site (same vector as KuFL) (N); made in house; host or cells: Sf21 insect cells
T2 sequence (P12956 whole entry K357E): as the sequence (P12956 whole entry) above, with K357E counted along it
T2 sequence (P13010 whole entry K481E): as the sequence (P13010 whole entry) above, with K481E counted along it

[5] = biological target: T2, Ku-2E (Ku70-K357E, Ku80-K481E); assay: ITC, Ku-2E mutant with IP6; assay type: binding
Description: as §1, with “The final yield was about 20 mg of purified heterodimer per litre of culture. KuΔC constructs, heterodimer deleted of its C-terminal region (Ku70 1–544, Ku80 1–551) for X-ray crystallography, Ku mutants, Ku-2E (Ku with mutation in K357E on Ku70 and K481E on Ku80) and Ku-4E (Ku with mutations in H359E and H360E on Ku70 and K413E and H414E on Ku80) were cloned in the same vector and produced following the same protocol as KuFL expressed in Sf21 insect cells.” left out
Calorimetry. Interactions between KuFL and inositol phosphates (IPs) (IP6 and IP6 analogues) were determined by Isothermal Titration Calorimetry (ITC) using a VP-ITC calorimeter (Malvern). […] The free energy of binding (ΔG) and the entropy (ΔS) were determined using the classical thermodynamic formula, ΔG = - RT ln(Ka) and ΔG = ΔH - TΔS. […]

SMILES: O=P(O)(O)O[C@H]1[C@H](OP(=O)(O)O)[C@@H](OP(=O)(O)O)[C@H](OP(=O)(O)O)[C@@H](OP(=O)(O)O)[C@H]1OP(=O)(O)O [IP6, inositol hexaphosphate]
- effect on end-joining of a linear plasmid substrate and DNA-PK dependent phosphorylation of XLF ([1]; human cell extracts): stimulated
- effect on c-NHEJ ([1]; human whole-cell extracts): stimulate c-NHEJ
- interaction between S. cerevisae Ku and IP6 [2]: absence of interactions
- Kd [3]: 3.5 ± 2.9 nM
- extra thermal stabilization by IP6 [4]: no extra stabilization
- interaction with IP6 as measured by ITC [5]: no interaction
